Measured values from patent publication US20170122958A1, “Enzymes Functional Probes” (University of Dundee, priority 2013, published 2017).
pKd: −log10 of the molar value.

Assays:
Brd2(2) Leu383-Ile = Brd2(2) Leu383-Ile (Homo sapiens, UniProt P25440, L383I); assay: DSF thermal shift; format: binding; parameters: Plasmids of the eight single BET bromodomain constructs Brd2(1), Brd2(2), Brd3(1), Brd3(2); His6 (N); made in house; host or cells: E. coli BL21(DE3); conditions: mutant
[1] = biological target: T1, double Leu(94,387)/Ala mutant of GFP-Brd4 (Homo sapiens, UniProt O60885, L387A/L94A); assay: FRAP in transfected U2OS cells; format: cell-based; conditions: double Leu(94,387)/Ala mutant GFP-Brd4, 1 μM compound
T1 construct: U2OS cells transfected with full-length human GFP-brd4; expressed in transfected cells; host or cells: U2OS human osteosarcoma cells
Description: To establish whether selectivity could also be observed within cells, we developed fluorescence recovery after photobleaching (FRAP) assays using full length human GFP-BRD4 transfected into human osteosarcoma cells (U2OS). […] The data shown represent the mean±SEM (n=35-50). Statistical significance was determined by one-tailed t tests: *<0.05; **P<0.01; ***P<0.001; n.s. not significant.
Fluorescence recovery after photobleaching (FRAP) experiments were performed in human osteosarcoma U2OS cells transfected with mammalian expression constructs encoding wild type and mutant GFP chimeras of Brd4. Cells were cultured in DMEM (Gibco) supplemented with fetal bovine serum, Penicillin/Streptamycin and L-Glutamine. Cells were seeded into glass bottom dishes (Willco) to about 40% confluency and transfected with the constructs using Effectene (QIAGEN) at least 18 h before the experiment. […] FRAP studies were performed using a DeltaVision Core mounted on an Olympus IX70 stand with a 60×1.4NA plan apo objective lens equipped with a heated chamber set to 37° C. and a Quantifiable Laser Module (QLM) with 10 mW 488 nm solid state laser delivering a diffraction limited spot to the centre field of view. […] FRAP data was analysed using the SoftWorX software. It was fitted to a 2-dimensional recovery curve using the method of Axelrod as implemented within the software and half-times of recovery were calculated.

[2] = biological target: T2, Brd2 tandem with mutations on both bromodomains (LA-LA) (Homo sapiens, UniProt P25440, L110A/L383A); assay: ITC of compound into Brd2 tandem construct; format: binding
T2 construct: containing the first and the second bromodomain, as well as the natural linker between them; His6; SUMO (cleaved yes); made in house; host or cells: E. coli BL21(DE3)
T2 sequence (P25440 71-455 L110A/L383A limits assumed): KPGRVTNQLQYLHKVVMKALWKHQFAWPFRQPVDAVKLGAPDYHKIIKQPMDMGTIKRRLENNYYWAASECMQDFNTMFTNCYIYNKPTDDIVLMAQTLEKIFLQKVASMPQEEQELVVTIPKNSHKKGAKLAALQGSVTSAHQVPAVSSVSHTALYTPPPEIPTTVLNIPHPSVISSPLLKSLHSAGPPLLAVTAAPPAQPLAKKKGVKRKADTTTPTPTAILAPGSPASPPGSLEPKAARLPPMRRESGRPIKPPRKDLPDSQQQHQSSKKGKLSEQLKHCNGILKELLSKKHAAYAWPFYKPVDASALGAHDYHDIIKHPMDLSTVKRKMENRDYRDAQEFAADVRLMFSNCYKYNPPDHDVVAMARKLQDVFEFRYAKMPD
Description: (§1) Tandem constructs of Brd2 with and without leucine to alanine mutations were expressed and purified for this last part of the project. […] Nevertheless, ITC experiments were performed with four of these constructs, a tandem with no mutation (WT-WT), a tandem with the mutation in the first bromodomain (LA-WT), a tandem with the mutation on the second bromodomain (WT-LA) and a tandem with mutations on both bromodomains (LA-LA). Normal titrations (compound into syringe, protein into sample cell) with compound 11 were performed for this assay. For the WT-WT construct, 300 μM of the compound was injected into a solution of the tandem at 10 μM. For the LA-WT and WT-LA constructs, the compound was injected at 150 μM into 15 μM of the protein and for the LA-LA construct, 150 μM compound was injected into a solution of 10 μM of this tandem construct. The ITC assays were run at 30° C. at 1% DMSO.
(§2) ITC experiments were carried out on a ITC200 instrument from MicroCal™ Experiments were conducted at 3 different temperatures 15° C., 25° C. and 30° C., while stirring at 1000 rpm. Buffers of proteins, peptide and compounds were matched to 20 mM HEPES pH 7.5 at 25° C. and 100 mM NaCl. Frozen protein was buffer exchanged as described for the DSF experiments. Each titration comprised 1 initial injection of 0.4 μl lasting 0.8 s, followed by 19 injections of 2 μl lasting 4 s each at 2 min intervals. The initial injection was discarded during data analysis. Standard and reverse titrations were conducted depending on the binding partners.
(§3) All the data was fitted to a single binding site model using the Microcal LLC ITC200 Origin software provided by the manufacturer to yield enthalpies of binding (ΔH) and binding constants (Kas). Further thermodynamic parameters were calculated from these values (changes in entropy ΔS, changes in free energy AG and dissociation constants (Kds)).

[3] = biological target: T3, Brd2 tandem with no mutation (WT-WT) (Homo sapiens, UniProt P25440); assay: ITC of compound into Brd2 tandem construct; format: binding
T3 construct: containing the first and the second bromodomain, as well as the natural linker between them; His6; SUMO (cleaved yes); made in house; host or cells: E. coli BL21(DE3)
T3 sequence (P25440 71-455 limits assumed, change not shown): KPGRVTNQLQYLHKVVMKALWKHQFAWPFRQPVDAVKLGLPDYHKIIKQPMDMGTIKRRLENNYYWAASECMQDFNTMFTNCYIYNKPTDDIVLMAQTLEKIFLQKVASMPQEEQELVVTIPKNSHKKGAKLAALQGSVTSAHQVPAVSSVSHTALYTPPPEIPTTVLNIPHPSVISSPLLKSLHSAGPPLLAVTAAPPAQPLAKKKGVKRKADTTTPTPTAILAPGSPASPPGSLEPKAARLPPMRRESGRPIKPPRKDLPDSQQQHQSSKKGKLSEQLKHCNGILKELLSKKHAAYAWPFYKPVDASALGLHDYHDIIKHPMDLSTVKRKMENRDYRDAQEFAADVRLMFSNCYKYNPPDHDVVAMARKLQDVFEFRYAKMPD
Description: as §1, §2, §3

[4] = biological target: T4, Brd2 tandem with the mutation in the first bromodomain (LA-WT) (Homo sapiens, UniProt P25440, L110A); assay: ITC of compound into Brd2 tandem construct; format: binding
T4 construct: containing the first and the second bromodomain, as well as the natural linker between them; His6; SUMO (cleaved yes); made in house; host or cells: E. coli BL21(DE3)
T4 sequence (P25440 71-455 L110A limits assumed): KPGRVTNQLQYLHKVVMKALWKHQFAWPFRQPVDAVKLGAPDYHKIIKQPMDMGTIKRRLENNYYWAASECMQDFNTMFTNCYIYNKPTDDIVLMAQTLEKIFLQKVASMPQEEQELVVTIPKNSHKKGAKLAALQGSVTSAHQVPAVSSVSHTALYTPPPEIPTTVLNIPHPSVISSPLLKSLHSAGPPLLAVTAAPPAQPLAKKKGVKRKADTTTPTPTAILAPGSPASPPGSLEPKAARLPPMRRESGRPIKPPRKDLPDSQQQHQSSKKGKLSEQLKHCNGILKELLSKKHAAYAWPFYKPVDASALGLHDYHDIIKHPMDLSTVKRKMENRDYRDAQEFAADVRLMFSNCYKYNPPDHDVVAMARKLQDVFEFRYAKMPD
Description: as §1, §2, §3

Brd2(2) Leu383-Ile, sequence (P25440 344-453 L383I limits assumed): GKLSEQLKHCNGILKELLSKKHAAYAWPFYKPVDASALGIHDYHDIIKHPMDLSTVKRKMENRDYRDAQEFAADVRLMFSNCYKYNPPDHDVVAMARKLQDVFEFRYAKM

Row | SMILES | Thermal stabilisation brd2(2)V383I (Table 1); Brd2(2) Leu383-Ile (text) (Brd2(2) Leu383-Ile) | ΔTm Brd2(2)*(Leu383-Ile) (Brd2(2) Leu383-Ile) | Thermal stabilisation brd2(2)V383I (Table 1); Brd2(2) Leu383-Ile (text) (Brd2(2) Leu383-Ile; listed as compound 7) | Fluorescence recovery after photobleaching (recovery time) [1] | pKd [2] | pKd [3] | pKd [4]
1 | COC(=O)[C@H](C)[C@@H]1N=C(c2ccc(Cl)cc2)c2cc(OC)ccc2-n2c(C)nnc21 (racemic) [Compound 7, (+−)-methyl (R)-2-((S)-6-(4-chlorophenyl)-8-methoxy-1-methyl-4H-benzo[f][1,2,4]triazolo[4,3-a][1,4]diazepin-4-yl)propanoate] | 9.6 ± 0.1 °C | 9.6 ± 0.1 K | 9.6 °C |  |  |  | 
2 | CC[C@@H](C(=O)OC)[C@@H]1N=C(c2ccc(Cl)cc2)c2cc(OC)ccc2-n2c(C)nnc21 (racemic) [Compound 11, (+−)-methyl (R)-2-((S)-6-(4-chlorophenyl)-8-methoxy-1-methyl-4H-benzo[f][1,2,4]triazolo[4,3-a][1,4]diazepin-4-yl)butanoate] |  |  |  | recovery times comparable to the iBET control | ~7.25 | ~4.80 | ~6.80
